Test results: patent US20240156090A1, “SUSPENSION CONCENTRATE ACYLHYDRAZONE APYRASE INHIBITOR FORMULATION” (Texas Crop Science, priority 2022, published 2024)

Assays:
Assay type in all cases: physicochemical
[1] = Chemical stability as a function of pH in PBS (Example 6); conditions: for remaining amount of Compound 1: 5 μM
Description: A working solution of Compound 1 was prepared in dimethyl sulfoxide at a concentration of 500 μM. 2 μL of the working solution and 198 μL of PBS pH 4.5 or PBS pH 7.4 were added into glass vials to achieve a final concentration of 5 μM. The setup was performed in duplicate. Vials were incubated at 37° C. at 60 rpm in a water bath and taken at designated time points of 0, 2, 4, 6 and 24 hours. For each time point, the incubations were terminated with 1000 μL cold acetonitrile containing internal analytical reference standards. Samples were vortexed for 1 minute then centrifuged at RT at 2500 g for 10 minutes. Aliquots of 200 μL of the supernatant were used for LC-MS/MS analysis.

[2] = Long term chemical stability of aqueous suspension concentrate as a function of pH, HPLC (Example 7); conditions: 30 wt % suspension concentrate
Description: Method: An aqueous suspension concentrate was prepared with the following composition: 30 wt % Compound 1, 2.5 wt % tristyrylphenol ethoxylate surfactant, 2.0 wt % ethyleneoxide-propyleneoxide block co-polymeric dispersant, 5.0 wt % propylene glycol freeze protectant, 0.1 wt % silicone oil antifoam, 52.4% distilled water, and after 2 hours of milling were added 8.0 wt % viscosity modifier gel comprising 2.0% xanthan and 1.0% biocide in water. Aliquots of this suspension were taken and adjusted to pH 6, 7 and 8 with respectively 10 wt % sulfuric acid, pH10 borate buffer and 10 wt % sodium hydroxide. The three samples were sub-divided and stored at room temperature (RT, approximately 25° C.) and 38° C. Control samples were stored at 0° C. for reference. Aliquots were withdrawn periodically and diluted in acetonitrile for analysis by HPLC.

[3] = Solubility of Compound 1 in water

## C/C(=N\NC(=O)c1cccc(C)c1)c1ccc2ccccc2c1 [Compound 1, (E)-3-methyl-N′-(1-(naphthalen-2-yl)ethylidene)benzohydrazide]
[1]; PBS pH 4.5, 37° C., 0 hr
  remaining amount of Compound 1: 100%
[1]; PBS pH 4.5, 37° C., 2 hr
  remaining amount of Compound 1: 62.3%
[1]; PBS pH 4.5, 37° C., 4 hr
  remaining amount of Compound 1: 33.7%
[1]; PBS pH 4.5, 37° C., 6 hr
  remaining amount of Compound 1: 29.2%
[1]; PBS pH 4.5, 37° C., 24 hr
  remaining amount of Compound 1: 3.1%
[1]; PBS pH 7.4, 37° C., 0 hr
  remaining amount of Compound 1: 100%
[1]; PBS pH 7.4, 37° C., 2 hr
  remaining amount of Compound 1: 112.4%
[1]; PBS pH 7.4, 37° C., 4 hr
  remaining amount of Compound 1: 96.2%
[1]; PBS pH 7.4, 37° C., 6 hr
  remaining amount of Compound 1: 97.8%
[1]; PBS pH 7.4, 37° C., 24 hr
  remaining amount of Compound 1: 91.1%
[1]; mildly acidic conditions (PBS pH 4.5), 37° C., read-out: apparent half-life
  half-life at 5 μM: > 2 h
[1]; mildly acidic conditions, corrected for solubility below 5 μM
  estimated half-life of actual degradation in solution: below one
[2]; pH 6 sample as printed in the last sentence of b183, 38° C., 1 month
  amount of Compound 1 remaining: 99%
[2]; pH 6 sample as printed in the last sentence of b183, 38° C., 9 months
  amount of Compound 1 remaining: 103%
[2]; pH 6 sample, 38° C., 1 month
  amount of Compound 1 remaining: 103%
[2]; pH 6 sample, 38° C., 9 months
  amount of Compound 1 remaining: 94%
[2]; pH 6 sample, RT, 1 month
  amount of Compound 1 remaining: 99%
[2]; pH 6 sample, RT, 9 months
  amount of Compound 1 remaining: 86%
[2]; pH 7 sample, 38° C., 1 month
  amount of Compound 1 remaining: 104%
[2]; pH 7 sample, 38° C., 9 months
  amount of Compound 1 remaining: 89%
[2]; pH 7 sample, RT, 1 month
  amount of Compound 1 remaining: 103%
[2]; pH 7 sample, RT, 9 months
  amount of Compound 1 remaining: 76%
[2]; pH 8 sample, RT, 1 month
  amount of Compound 1 remaining: 99%
[2]; pH 8 sample, RT, 9 months
  amount of Compound 1 remaining: 102%
[3]
  solubility: < 5 µM
